Reference: patent publication US20190151304A1, “METHODS AND PHARMACEUTICAL COMPOSITIONS FOR THE TREATMENT OF AUTOIMMUNE INFLAMMATORY” (INSERM (INSTITUT NATIONAL DE LA SANTÉ ET DE LA RECHERCJAE …, priority 2016, published 2019)

How the values were obtained:
[1] = test system: colon adenocarcinoma HT-29 cells; test: Cells growth determination, HT-29 cells; type: cell-based; conditions: 48 hr; OxA 0.1 μM, SB408124 increasing concentrations
Method: (§1) FIG. 12: Determination of the inhibition of cellular growth of HEK-OX1R cells and colon adenocarcinoma cells (HT-29) induced by 0.1 μM of OxA or various concentrations of SB408124 antagonist. HEK-OX1R cells (black column) and HT-29 cells (white column) were incubated with 0.1 μM of OxA and indicated increasing concentration of SB408124, and cells were counted after 48 hr incubation. Results are expressed as the percentage of total viable cells.
(§2) Cells growth determination and apoptosis assay: HEK-OX1R cells or colon adenocarcinoma HT-29 cells were seeded, grown and maintained at 37° C. in a humidified 5% CO2/air incubator. After 24 hr culture, cells were treated with or without Orexin-A peptide or SB408124 antagonist, previously dissolved in DMSO, to be tested at the concentration indicated in the figure legends. After 48 hr of treatment, adherent cells were harvested by Trip1E (Life Technologies, Saint Aubin, France) and manually counted. Apoptosis was determined using the Guava PCA system and the Guava nexin kit.

[2] = test system: colon adenocarcinoma HT-29 cells; test: Apoptosis assay (annexin V-PE binding, Guava nexin kit) in HT-29 cells; type: cell-based; conditions: 48 h; orexin-A 1 μM, SB408124 various concentrations
Method: FIG. 13: Effect of orexin-A and SB408124 antagonist on apoptosis in OX1R expressing colon adenocarcinoma cells, HT-29. HT-29 cells were challenged with 1 μM orexin-A or various concentration of SB408124 for 48 h. Apoptosis was measured by determination of annexin V-PE binding, and results are expressed as the percentage of apoptotic cells. Results are means±SE of three experiments. ***P<0.001.
as §2

[3] = molecular target: T1, OX1R (Homo sapiens, UniProt O43613, A280G); test: Ca2+ mobilization assay in HEK-OX1R cells (FluoForte); type: cell-based; conditions: pre-incubation 1 μM for 1 h, then 1 μM OxA
T1 construct: HEK cells expressing recombinant native OX1R (HEK-OX1R); expressed in transfected cells; host or cells: HEK cells (HEK-OX1R)
T1 sequence (O43613 1-425 A280G): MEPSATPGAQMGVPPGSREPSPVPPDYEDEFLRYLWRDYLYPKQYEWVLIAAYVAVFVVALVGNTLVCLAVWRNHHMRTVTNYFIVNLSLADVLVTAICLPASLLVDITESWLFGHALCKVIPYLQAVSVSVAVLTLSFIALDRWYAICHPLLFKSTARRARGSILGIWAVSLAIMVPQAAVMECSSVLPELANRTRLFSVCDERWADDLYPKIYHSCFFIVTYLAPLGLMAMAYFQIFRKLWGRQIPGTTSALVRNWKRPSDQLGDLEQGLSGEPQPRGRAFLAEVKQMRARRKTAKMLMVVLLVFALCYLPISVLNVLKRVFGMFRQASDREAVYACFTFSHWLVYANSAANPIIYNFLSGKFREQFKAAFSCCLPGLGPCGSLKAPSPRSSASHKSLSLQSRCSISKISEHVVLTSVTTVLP

[4] = test system: HEK-OX1R cells; test: Cells growth determination, HEK-OX1R cells; type: cell-based; conditions: 48 hr; OxA 0.1 μM, SB408124 increasing concentrations
Method: as §1, §2

[5] = test system: DSS-induced colitis mice; test: DSS-induced colitis mice model (Disease Activity Index, colon length); type: in vivo, Balb/c mice; conditions: 5% DSS in drinking water; 20 μg daily ip, one week
Source text: FIG. 2: OXA ameliorates the DAI (weight and colitis score) of DSS-induced colitis mice. Mice were orally treated with 5% DSS for 7 days in the presence or in the absence of daily intraperitoneal injection of OxA (0.22 μmoles/kg). Left, determination of gain or loss of weight in the absence of DSS treatment (Control,▴), in the presence of DSS treatment (DSS,▪) and in the presence of DSS associated to OxA treatment (DSS+OxA,●). Right, evaluation of Disease Activity Index (DAI) scored by measuring weight, length of colon, diarrhea and blood presence in the stool in DSS untreated control mice (Control,A), in DSS treated mice (DSS,▪) and in DSS treated mice associated to OxA treatment (DSS+OxA,●).
FIG. 14: Effect of daily ip inoculation of OxA, Suvorexant and Almorexant on the length of colon from DSS—(dextran sulfate sodium) treated mice mimicking the acute ulcerative colitis disease. A. Mice were treated with 5% (w/v) DSS in drinking water and daily injected with 20 μg of OxA (OXA IP), 20 μg of Suvorexant (Suvo) or 20 μg of Almorexant (Almo). Control (wt) or treated DSS mice (DSS) were daily injected with 100 μl PBS. After one week of treatment, mice were sacrificed and the length of colon which represented a good marker of inflammation state, was measured. […] B. quantification of colon length from 5 different DSS-treated mice injected with OxA (DSS+OXA IP), Almorexant (DSS+Almo), Suvorexant (DSS+Suvo) or not injected (WT and DSS). NS, no significant; *, p<0.05; ** p<0.001
Based on these observations, we have investigated the effect of Orexin A (OxA) on acute inflammation in mice treated with Dextran Sulfate Sodium (DSS). OxA was preferentially chosen in these experiments since the presence of two disulphide bridges confers it more stability. DSS induces acute colitis characterized by weight loss, bloody diarrhea, intestinal ulcerations and infiltrations with granulocytes.
DSS-induced colitis mice models: Balb/c mice were orally treated by 5% (w/v) of Dextran Sulfate Sodium (DSS) for 7 days. Orexin treatment was carried out in DSS treated mice by daily intraperitoneal injection of OxA (0.22 μmoles/kg) for 7 days. Weight and colitis symptoms (diarrhea, blood in the stool . . . ) for each mouse was daily measured. After 7 days of treatment, animals were sacrificed and colons were resected to further analyses (size, histological aspect, cytokine assays).
The inventors have thus investigated the effect of daily intraperitoneal inoculation of OxA, Suvorexant and Almorexant in the experimental context of EXAMPLE 1 (colitis). In particular they investigated the effects of the drugs on the length of colon from DSS-(dextran sulfate sodium) treated mice mimicking the acute ulcerative colitis disease. […]

SMILES | Inhibition of cellular growth of HT-29 cells [1] | Apoptosis in HT-29 cells [2] | Effect on OxA-induced Ca2+ mobilization in HEK-OX1R cells [3] | Inhibition of cellular growth of HEK-OX1R cells [4] | Protection from DSS induced acute ulcerative colitis (length of colon) [5]
Cc1cc(NC(=O)Nc2ccc(N(C)C)cc2)c2cc(F)cc(F)c2n1 [SB408124] | strong inhibition in a dose-dependent manner | able to induce in a dose-dependent manner cell apoptosis | totally abolished | strong inhibition in a dose-dependent manner | 
CNC(=O)[C@@H](c1ccccc1)N1CCc2cc(OC)c(OC)cc2[C@@H]1CCc1ccc(C(F)(F)F)cc1 [Almorexant] |  |  |  |  | protect mice from DSS induced acute ulcerative colitis disease
Cc1ccc(-n2nccn2)c(C(=O)N2CCN(c3nc4cc(Cl)ccc4o3)CC[C@H]2C)c1 [Suvorexant] |  |  |  |  | protect mice from DSS induced acute ulcerative colitis disease
